In patent publication US4737513A, “Novel pyrrole derivatives” (Roussel Uclaf, priority 1984, dated 1988):

Experiments:
Format in all cases: in vivo
house flies = assay: Study of knock-down activity of house flies (direct atomization in a Kearns and March chamber); conditions: for KT 50: concentration at 0.1 g/l, female house flies 4 days old, acetone (5%) and Isopar L; for knock-down power: general statement in the description
Procedure: (1) Study of knock-down activity of house flies
The test insects were female house flies 4 days old and the test was effected by direct atomization in a Kearns and March chamber using as solvent a mixture of acetone (5%) and Isopar L (petrol solvent) (quantity of solvent used, 2 ml in one second). 50 insects were used per treatment and checks were made every minute for 10 minutes, then at 15 minutes, and the KT50 was determined by the usual methods.

Tetranychus urticae = assay: Activity on Tetranychus urticae, test of lethal effect on adults; conditions: for LD 50: females on treated bean leaves, checked after 80 hours of contact
Procedure: (4) Activity on Tetranychus urticae, test of lethal effect on adults
Bean plants having two cotyledon leaves were used which were treated with a Fisher gun with an acetone solution of the product. After drying, 25 females of the acaridan Tetranychus urticae were placed on each leaf, that is 50 individuals per experimental dose per plant. The efficacity was checked after 80 hours of contact, and the LD 50 was indicated in mg/hl.

[1] = tested on: cockroaches (Blatella germanica); assay: Study of activity by tarsal contact on cockroaches; conditions: male Blatella germanica; 1 hour on dried acetone deposit; mortality checked at 24 hours, 48 hours, 3 days and 5 days
Procedure: (2) Study of activity by tarsal contact on cockroaches
The insects tested were male cockroaches (Blatella germanica) and the test was carried out by depositing an acetone solution of a certain concentration on the bottom of a Petri dish 20 cm in diameter. After this had dried, 20 male cockroaches were allowed to stay there per concentration for 1 hour, after which they were transferred to a healthy medium and their mortality was checked at 24 hours, 48 hours, 3 days and 5 days. The result was expressed as lethal concentration 50 (LC 50) in mg/m^2.

Row | Structure (SMILES) | KT 50 (house flies) | other results
1 | C#CCn1ccc(COC(=O)[C@@H]2[C@H](C=C(Br)Br)C2(C)C)c1 (relative stereo) [Example 6, [1-(2-propynyl)-1H-pyrrol-3-yl]-methyl (1R,cis) 2,2-dimethyl-3-(-dibromoethenyl)-cyclopropane carboxylate] | 4.7 min | 
2 | C=CCn1cc(COC(=O)[C@@H]2[C@H](C=C(Br)Br)C2(C)C)cc1C#N (relative stereo) [Example 54, [1-(2-propenyl)-2-cyano-1H-pyrrol-4-yl]methyl (1R,cis) 2,2-dimethyl-3-(2,2-dibromoethenyl)-cyclopropane carboxylate] | 4.7 min | 
3 | C#CCn1ccc(COC(=O)[C@@H]2[C@H](/C=C\C(=O)OC)C2(C)C)c1 [Example 1, [1-(2-propynyl)-1H-pyrrol-3-yl]-methyl (1R,cisΔZ) 2,2-dimethyl-3-(3-methoxy-3-oxo-1-propenyl)-cyclopropane carboxylate] | 1.3 min | knock-down power (house flies): particularly remarkable
4 | C#CCn1ccc(COC(=O)[C@@H]2[C@H](/C=C(/F)C(=O)OCC)C2(C)C)c1 [Example 2, [1-(2-propynyl)-1H-pyrrol-3-yl]-methyl (1R,cisΔE) 2,2-dimethyl-3-(3-ethoxy-3-oxo-2-fluoro-1-propenyl)-cyclopropane carboxylate] | 1.6 min | knock-down power (house flies): particularly remarkable
5 | C#CCn1ccc(COC(=O)[C@@H]2[C@H](/C=C\C(=O)OC(C)(C)C)C2(C)C)c1 [Example 3, [1-(2-propynyl)-1H-pyrrol-3-yl]-methyl (1R,cis,ΔZ) 2,2-dimethyl-3-(3-tert-butyloxy-3-oxo-1-propenyl)-cyclopropane carboxylate] | 5.8 min | 
6 | C#CCn1ccc(COC(=O)[C@@H]2[C@H](/C=C(/F)C(=O)OC)C2(C)C)c1 [Example 4, [1-(2-propynyl)-1H-pyrrol-3-yl]-methyl (1R,cisΔE) 2,2-dimethyl-3-(3-methoxy-3-oxo-2-fluoro-1-propenyl)-cyclopropane carboxylate] | 2.4 min | 
7 | C#CCn1ccc(COC(=O)[C@@H]2[C@H](/C=C(/F)C(=O)OC(C)(C)C)C2(C)C)c1 [Example 5, [1-(2-propynyl)-1H-pyrrol-3-yl]-methyl (1R,cis,ΔE) 2,2-dimethyl-3-(3-tert-butoxy-3-oxo-2-fluoro-1-propenyl)-cyclopropane carboxylate] | 3.2 min | 
8 | C#CCn1ccc(C(C#N)OC(=O)[C@@H]2[C@H](/C=C(/F)C(=O)OCC)C2(C)C)c1 (stereo partly drawn) [Example 15, cyano-[1-(2-propynyl)-1H-pyrrol-3-yl]-methyl (1R,cisΔE) 2,2-dimethyl-3-(3-ethoxy-3-oxo-2-fluoro-1-propenyl)-cyclopropane carboxylate] | 1.8 min | knock-down power (house flies): particularly remarkable
9 | C#CCn1ccc(COC(=O)[C@@H]2[C@H](C=C(Br)Br)C2(C)C)c1C#N [Example 26] | 3.5 min | 
10 | C#CCn1ccc(COC(=O)[C@@H]2[C@H](/C=C(/F)C(=O)OC(C)(C)C)C2(C)C)c1C(F)(F)F [Example 40, [2-trifluoromethyl-1-(2-propynyl)-1H-pyrrol-3-yl]-methyl (1R,cis,ΔE) 2,2-dimethyl-3-(3-tertbutyloxy-3-oxo-2-fluoropenyl)-cyclopropane carboxylate] | 5.6 min | knock-down power (house flies): particularly remarkable; acaricidal effect on Tetranychus urticae (Tetranychus urticae; conclusion of the test): remarkable acaricidal effect; LD 50 (Tetranychus urticae): 32 mg/hl
11 | C#CCn1cc(C(C#N)OC(=O)[C@@H]2[C@H](/C=C(/F)C(=O)OCC)C2(C)C)cc1C#N (stereo partly drawn) [Example 44] | 2.2 min | 
12 | C#CCn1cc(COC(=O)[C@@H]2[C@H](/C=C(/F)C(=O)OC(C)(C)C)C2(C)C)c(C(F)(F)F)c1 [Example 45, [1-(2-propynyl)-3-trifluoromethyl)-1H-pyrrol-4-yl]methyl (1R,cisΔE) 2,2-dimethyl-3-[2-fluoro-3-oxo-3-tertbutoxypropenyl]-cyclopropane carboxylate] | 6.1 min | lethal concentration 50 (LC 50) [1]: 6.4 mg/m^2; LD 50 (Tetranychus urticae): 264 mg/hl
13 | C=CCn1ccc(C(C#N)OC(=O)[C@@H]2[C@H](C=C(Br)Br)C2(C)C)c1 (stereo partly drawn) [Example 50, (R,S)-cyano-[1-(2-propenyl)-1H-pyrrol-3-yl]methyl (1R,cis) 2,2-dimethyl-3-(2,2-dibromoethenyl)cyclopropane carboxylate] | 3.5 min | 
14 | C#CCn1ccc(COC(=O)[C@@H]2[C@H](/C=C\C(=O)OC)C2(C)C)c1C#N [Example 51, [1-(2-propynyl)-2-cyano-1H-pyrrol-3-yl]methyl (1R,cis) 2,2-dimethyl-3-(3-methoxy-3-oxo-1-propenyl)cyclopropane carboxylate] | 1.9 min | 
15 | C#CCn1ccc(COC(=O)[C@@H]2[C@H](/C=C(/F)C(=O)OCC)C2(C)C)c1C#N [Example 52, [1-(2-propynyl)-2-cyano-1H-pyrrol-3-yl]methyl (1R,cis) 2,2-dimethyl-3-(2-fluoro-2-ethoxy-2-oxo-1-propenyl)cyclopropane carboxylate] | 1.5 min | 
16 | C=CCn1cc(COC(=O)[C@@H]2[C@H](/C=C(/F)C(=O)OCC)C2(C)C)cc1C#N [Example 53, [1-(2-propenyl)-2-cyano-1H-pyrrol-4-yl]methyl (1R,cisΔE) 2,2-dimethyl-3-[2-fluoro-2-ethoxy-2-oxo-1-propenyl]cyclopropane carboxylate] | 2.4 min | 
17 | C=CCn1cc(C(C#N)OC(=O)[C@@H]2[C@H](C=C(Br)Br)C2(C)C)cc1C#N (stereo partly drawn) [Example 55, (R,S)-cyano-[1-(2-propenyl)-2-cyano-1H-pyrrol-4-yl]-methyl (1R,cis) 2,2-dimethyl-3-(2,2-dibromoethenyl)-cyclopropane carboxylate] | 8.7 min | 
18 | C=CCn1ccc(COC(=O)[C@@H]2[C@H](/C=C(/F)C(=O)OCC)C2(C)C)c1 [Example 56, 1-(2-propenyl-1H-pyrrol-3-yl)-methyl (1R,cisΔE) 2,2-dimethyl-3-(2-fluoro-3-ethoxy 3-oxo-1-propenyl)-cyclopropane carboxylate] | 4.0 min | 
19 | C#CCn1cc(C(C#C)OC(=O)[C@@H]2[C@H](/C=C(/F)C(=O)OCC)C2(C)C)cc1C#N (stereo partly drawn) [Example 57, [1-(2-propynyl)-2-cyano-1H-pyrrol-4-yl]-propyn-2-yl (1R,cisΔE) 2,2-dimethyl-3-[2-fluoro-3-ethoxy-3-oxo-1-propenyl]-cyclopropane carboxylate] | 4.0 min | 
20 | C#CCn1cc(C(C)OC(=O)[C@@H]2[C@H](/C=C(/F)C(=O)OCC)C2(C)C)cc1C#N (stereo partly drawn) [Example 60, [1-(2-propynyl)-2-cyano-1H-pyrrol-4-yl]-ethyl (1R,cisΔE) 2,2-dimethyl-3-(2-fluoro-3-ethoxy-3-oxo-1-propenyl)-cyclopropane carboxylate] | 1.8 min | 
21 | CCOC(=O)/C(F)=C\[C@H]1[C@@H](C(=O)OCc2cc(C#N)n(C/C=C\Cl)c2)C1(C)C [Example 65, [2-cyano-[1-(3-chloro-2-(Z)-propenyl]-1H-pyrrol-4-yl]-methyl (1R,cis,ΔE) 2,2-dimethyl-3-(2-fluoro-3-ethoxy-3-oxo-1-propenyl)-cyclopropane carboxylate] | 3.1 min | 
22 | CCOC(=O)/C(F)=C\[C@H]1[C@@H](C(=O)OCc2cc(C#N)n(C/C=C/Cl)c2)C1(C)C [Example 66, [2-cyano-1-[3-chloro-2-(E)-propenyl]-1H-pyrrol-4-yl]-methyl (1R,cisΔE) 2,2-dimethyl-3-[2-fluoro-3-ethoxy-3-oxo-1-propenyl]-cyclopropane carboxylate] | 7.9 min | 
23 | C#CCn1ccc(C(C#N)OC(=O)[C@@H]2[C@H](/C=C(/F)C(=O)OCC)C2(C)C)c1C#N (stereo partly drawn) [Example 67, (R,S) cyano[1-(2-propynyl)-2-cyano-1H-pyrrol-3-yl]-methyl (1R,cisΔE) 2,2-dimethyl-3-(2-fluoro-3-ethoxy-3-oxo-1-propenyl)-cyclopropane carboxylate] | 3.8 min | 
24 | C#CCn1cc(COC(=O)[C@@H]2[C@H](/C=C(/F)C(=O)OCC)C2(C)C)cc1C(F)(F)F [Example 70, [1-(2-propynyl)-2,2,2-trifluoromethyl-1H-pyrrol-4-yl]-methyl (1R,cis,ΔE) 2,2-dimethyl-3-[2-fluoro-3-ethoxy-3-oxo-1-propenyl]-cyclopropane carboxylate] | 3.9 min | lethal concentration 50 (LC 50) [1]: 4.5 mg/m^2; LD 50 (Tetranychus urticae): 2126 mg/hl
25 | C#CCn1cc(COC(=O)[C@@H]2[C@H](/C=C(/F)C(=O)OCC)C2(C)C)c(C(F)(F)F)c1 [Example 72, [1-(2-propynyl)-3,3,3-trifluoromethyl-1H-pyrrol-4-yl]methyl (1R,cis,ΔE) 2,2-dimethyl-3-[2-fluoro-3-ethoxy-3-oxo-1-propenyl]-cyclopropane carboxylate] | 3.8 min | lethal concentration 50 (LC 50) [1]: 6.7 mg/m^2
